From PubChem BioAssay (NCI)
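Results reflect a 48-hour exposure of cells in 96-well plates to compound at five concentrations. TGI: total growth inhibition.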

Key:
Assay in all cases: DTP human tumour cell line panel, 48 h
786-0 renal = test system: 786-0 renal
A498 renal = test system: A498 renal
A549 NSCLC = test system: A549 NSCLC
ACHN renal = test system: ACHN renal
BT-549 breast = test system: BT-549 breast
CAKI-1 renal = test system: CAKI-1 renal
CCRF-CEM leukemia = test system: CCRF-CEM leukemia
COLO 205 colon = test system: COLO 205 colon
DU-145 prostate = test system: DU-145 prostate
EKVX NSCLC = test system: EKVX NSCLC
HCC-2998 colon = test system: HCC-2998 colon
HCT-116 colon = test system: HCT-116 colon
HCT-15 colon = test system: HCT-15 colon
HL-60(TB) leukemia = test system: HL-60(TB) leukemia
HOP-62 NSCLC = test system: HOP-62 NSCLC
HOP-92 NSCLC = test system: HOP-92 NSCLC
HS 578T breast = test system: HS 578T breast
HT29 colon = test system: HT29 colon
IGROV1 ovarian = test system: IGROV1 ovarian
K-562 leukemia = test system: K-562 leukemia
KM12 colon = test system: KM12 colon
LOX IMVI melanoma = test system: LOX IMVI melanoma
M14 melanoma = test system: M14 melanoma
MALME-3M melanoma = test system: MALME-3M melanoma
MCF7 breast = test system: MCF7 breast
MDA-MB-231 breast = test system: MDA-MB-231 breast
MDA-MB-435 = test system: MDA-MB-435
MDA-N = test system: MDA-N
MOLT-4 leukemia = test system: MOLT-4 leukemia
NCI-H226 lung = test system: NCI-H226 lung
NCI-H23 lung = test system: NCI-H23 lung
NCI-H460 lung = test system: NCI-H460 lung
NCI-H522 lung = test system: NCI-H522 lung
NCI/ADR-RES ovarian = test system: NCI/ADR-RES ovarian
OVCAR-3 ovarian = test system: OVCAR-3 ovarian
OVCAR-4 ovarian = test system: OVCAR-4 ovarian
OVCAR-5 ovarian = test system: OVCAR-5 ovarian
OVCAR-8 ovarian = test system: OVCAR-8 ovarian
PC-3 prostate = test system: PC-3 prostate
RPMI-8226 leukemia = test system: RPMI-8226 leukemia
SF-268 CNS = test system: SF-268 CNS
SF-295 CNS = test system: SF-295 CNS
SF-539 CNS = test system: SF-539 CNS
SK-MEL-2 melanoma = test system: SK-MEL-2 melanoma
SK-MEL-28 melanoma = test system: SK-MEL-28 melanoma
SK-MEL-5 melanoma = test system: SK-MEL-5 melanoma
SK-OV-3 ovarian = test system: SK-OV-3 ovarian
SN12C renal = test system: SN12C renal
SNB-19 CNS = test system: SNB-19 CNS
SNB-75 CNS = test system: SNB-75 CNS
SR leukemia = test system: SR leukemia
SW-620 colon = test system: SW-620 colon
T-47D breast = test system: T-47D breast
TK-10 renal = test system: TK-10 renal
U251 CNS = test system: U251 CNS
UACC-62 melanoma = test system: UACC-62 melanoma
UO-31 renal = test system: UO-31 renal
UACC-257 melanoma = test system: UACC-257 melanoma

Molecule COc1ccc(NC(=S)N/N=C/c2cccc(C)n2)cc1 has a TGI (786-0 renal) greater than 65 µM, a TGI (A498 renal) of 90 µM and a TGI (A549 NSCLC) greater than 100 µM. The TGI (ACHN renal) was 19.5 µM, the TGI (BT-549 breast) was greater than 71 µM and the TGI (CAKI-1 renal) was greater than 79 µM. The TGI (CCRF-CEM leukemia) was greater than 54 µM, the TGI (COLO 205 colon) was greater than 39.6 µM and the TGI (DU-145 prostate) was greater than 67.1 µM. The TGI (EKVX NSCLC) was greater than 100 µM, the TGI (HCC-2998 colon) was greater than 100 µM and the TGI (HCT-116 colon) was greater than 100 µM. It also gave a TGI (HCT-15 colon) greater than 100 µM, a TGI (HL-60(TB) leukemia) of 6.06 µM and a TGI (HOP-62 NSCLC) of 38.4 µM. The TGI (HOP-92 NSCLC) was greater than 85.5 µM, the TGI (HS 578T breast) was greater than 100 µM and the TGI (HT29 colon) was 14.9 µM. For the same molecule, the TGI (IGROV1 ovarian) was 24.1 µM, the TGI (K-562 leukemia) was greater than 100 µM and the TGI (KM12 colon) was greater than 100 µM. For the same molecule, the TGI (LOX IMVI melanoma) was 33.2 µM, the TGI (M14 melanoma) was 11.2 µM and the TGI (MALME-3M melanoma) was greater than 100 µM. The TGI (MCF7 breast) was greater than 100 µM, the TGI (MDA-MB-231 breast) was greater than 100 µM and the TGI (MDA-MB-435) was greater than 100 µM. It also gave a TGI (MDA-N) greater than 100 µM, a TGI (MOLT-4 leukemia) greater than 29.3 µM and a TGI (NCI-H226 lung) of 53.8 µM. It also gave a TGI (NCI-H23 lung) greater than 100 µM, a TGI (NCI-H460 lung) greater than 42.9 µM and a TGI (NCI-H522 lung) of 5.73 µM. The TGI (NCI/ADR-RES ovarian) was greater than 26.6 µM, the TGI (OVCAR-3 ovarian) was greater than 100 µM and the TGI (OVCAR-4 ovarian) was greater than 100 µM. For the same molecule, the TGI (OVCAR-5 ovarian) was greater than 100 µM, the TGI (OVCAR-8 ovarian) was greater than 35.4 µM and the TGI (PC-3 prostate) was greater than 100 µM. For the same molecule, the TGI (RPMI-8226 leukemia) was 62.1 µM, the TGI (SF-268 CNS) was greater than 66.9 µM and the TGI (SF-295 CNS) was 40.3 µM. For the same molecule, the TGI (SF-539 CNS) was 34.2 µM, the TGI (SK-MEL-2 melanoma) was greater than 100 µM and the TGI (SK-MEL-28 melanoma) was greater than 100 µM. The TGI (SK-MEL-5 melanoma) was greater than 36.5 µM, the TGI (SK-OV-3 ovarian) was 46.2 µM and the TGI (SN12C renal) was greater than 100 µM. For the same molecule, the TGI (SNB-19 CNS) was greater than 100 µM, the TGI (SNB-75 CNS) was 81.8 µM and the TGI (SR leukemia) was greater than 37.5 µM. For the same molecule, the TGI (SW-620 colon) was greater than 100 µM, the TGI (T-47D breast) was greater than 100 µM and the TGI (TK-10 renal) was greater than 100 µM. The TGI (U251 CNS) was 24.6 µM, the TGI (UACC-62 melanoma) was 10.7 µM and the TGI (UO-31 renal) was 18 µM.

Work on N#CCN1c2ccccc2CCC1Cl (centres undefined) yielded a TGI (786-0 renal) greater than 10 µM, a TGI (A498 renal) greater than 10 µM and a TGI (A549 NSCLC) greater than 10 µM. For the same molecule, the TGI (ACHN renal) was greater than 10 µM, the TGI (BT-549 breast) was greater than 10 µM and the TGI (CAKI-1 renal) was greater than 10 µM. The TGI (CCRF-CEM leukemia) was greater than 10 µM, the TGI (COLO 205 colon) was greater than 10 µM and the TGI (DU-145 prostate) was greater than 10 µM. For the same molecule, the TGI (EKVX NSCLC) was greater than 10 µM, the TGI (HCC-2998 colon) was greater than 10 µM and the TGI (HCT-116 colon) was greater than 10 µM. It also gave a TGI (HCT-15 colon) greater than 10 µM, a TGI (HOP-62 NSCLC) greater than 10 µM and a TGI (HOP-92 NSCLC) greater than 10 µM. The TGI (HS 578T breast) was greater than 10 µM, the TGI (HT29 colon) was greater than 10 µM and the TGI (IGROV1 ovarian) was greater than 10 µM. It also gave a TGI (K-562 leukemia) greater than 10 µM, a TGI (KM12 colon) greater than 10 µM and a TGI (LOX IMVI melanoma) greater than 10 µM. It also gave a TGI (M14 melanoma) greater than 10 µM, a TGI (MALME-3M melanoma) greater than 10 µM and a TGI (MCF7 breast) greater than 10 µM. The TGI (MDA-MB-231 breast) was greater than 10 µM, the TGI (MDA-MB-435) was greater than 10 µM and the TGI (MDA-N) was greater than 10 µM. For the same molecule, the TGI (MOLT-4 leukemia) was greater than 10 µM, the TGI (NCI-H226 lung) was greater than 10 µM and the TGI (NCI-H23 lung) was greater than 10 µM. The TGI (NCI-H460 lung) was greater than 10 µM, the TGI (NCI-H522 lung) was greater than 10 µM and the TGI (NCI/ADR-RES ovarian) was greater than 10 µM. It also gave a TGI (OVCAR-3 ovarian) greater than 10 µM, a TGI (OVCAR-4 ovarian) greater than 10 µM and a TGI (OVCAR-5 ovarian) greater than 10 µM. The TGI (OVCAR-8 ovarian) was greater than 10 µM, the TGI (PC-3 prostate) was greater than 10 µM and the TGI (RPMI-8226 leukemia) was greater than 10 µM. It also gave a TGI (SF-268 CNS) greater than 10 µM, a TGI (SF-295 CNS) greater than 10 µM and a TGI (SF-539 CNS) greater than 10 µM. The TGI (SK-MEL-28 melanoma) was greater than 10 µM, the TGI (SK-MEL-5 melanoma) was greater than 10 µM and the TGI (SK-OV-3 ovarian) was greater than 10 µM. The TGI (SN12C renal) was greater than 10 µM, the TGI (SNB-19 CNS) was greater than 10 µM and the TGI (SR leukemia) was greater than 10 µM. For the same molecule, the TGI (SW-620 colon) was greater than 10 µM, the TGI (T-47D breast) was greater than 10 µM and the TGI (TK-10 renal) was greater than 10 µM. It also gave a TGI (U251 CNS) greater than 10 µM, a TGI (UACC-257 melanoma) greater than 10 µM and a TGI (UACC-62 melanoma) greater than 10 µM. It also gave a TGI (UO-31 renal) greater than 10 µM.

In the case of C=C1CC(Cn2ccc(=O)[nH]c2=O)(c2ccc(OC)cc2)OC1=O (centres undefined), the TGI (786-0 renal) is reported as 25.2 µM, the TGI (A498 renal) is reported as 31.6 µM and the TGI (A549 NSCLC) is reported as 59.2 µM. For the same molecule, the TGI (ACHN renal) was 33 µM, the TGI (BT-549 breast) was 24.6 µM and the TGI (CAKI-1 renal) was 19.6 µM. It also gave a TGI (CCRF-CEM leukemia) of 10.4 µM, a TGI (COLO 205 colon) of 14.5 µM and a TGI (DU-145 prostate) of 31.3 µM. It also gave a TGI (EKVX NSCLC) of 41.5 µM, a TGI (HCC-2998 colon) of 17.5 µM and a TGI (HCT-116 colon) of 20 µM. It also gave a TGI (HCT-15 colon) of 31.5 µM, a TGI (HL-60(TB) leukemia) of 7.45 µM and a TGI (HOP-62 NSCLC) greater than 100 µM. For the same molecule, the TGI (HOP-92 NSCLC) was 4.58 µM, the TGI (HS 578T breast) was 56.9 µM and the TGI (HT29 colon) was 31.2 µM. The TGI (IGROV1 ovarian) was 31.6 µM, the TGI (K-562 leukemia) was 16 µM and the TGI (KM12 colon) was 35.5 µM. For the same molecule, the TGI (LOX IMVI melanoma) was 27.8 µM, the TGI (M14 melanoma) was 21.2 µM and the TGI (MALME-3M melanoma) was 27 µM. For the same molecule, the TGI (MCF7 breast) was 16 µM, the TGI (MDA-MB-231 breast) was 33.2 µM and the TGI (MDA-MB-435) was 30.8 µM. The TGI (MDA-N) was 28 µM, the TGI (MOLT-4 leukemia) was 8.25 µM and the TGI (NCI-H226 lung) was 39.3 µM. It also gave a TGI (NCI-H23 lung) of 29.2 µM, a TGI (NCI-H460 lung) greater than 67.6 µM and a TGI (NCI-H522 lung) of 4.4 µM. For the same molecule, the TGI (NCI/ADR-RES ovarian) was 38.9 µM, the TGI (OVCAR-3 ovarian) was 36.1 µM and the TGI (OVCAR-4 ovarian) was 35.1 µM. For the same molecule, the TGI (OVCAR-5 ovarian) was 32.2 µM, the TGI (OVCAR-8 ovarian) was 46.8 µM and the TGI (PC-3 prostate) was 30.6 µM. The TGI (RPMI-8226 leukemia) was 12 µM, the TGI (SF-268 CNS) was 51.1 µM and the TGI (SF-295 CNS) was greater than 100 µM. For the same molecule, the TGI (SF-539 CNS) was 41.2 µM, the TGI (SK-MEL-2 melanoma) was 27.1 µM and the TGI (SK-MEL-28 melanoma) was 33 µM. The TGI (SK-MEL-5 melanoma) was 26.8 µM, the TGI (SK-OV-3 ovarian) was greater than 92.9 µM and the TGI (SN12C renal) was 19 µM. For the same molecule, the TGI (SNB-19 CNS) was greater than 100 µM, the TGI (SR leukemia) was 10.5 µM and the TGI (SW-620 colon) was 16.1 µM. The TGI (T-47D breast) was 39.8 µM, the TGI (TK-10 renal) was 25.2 µM and the TGI (U251 CNS) was 53.4 µM. The TGI (UACC-257 melanoma) was 35.3 µM, the TGI (UACC-62 melanoma) was 27.9 µM and the TGI (UO-31 renal) was 31.7 µM.
